Data: patent publication US8604053B2, “TRPV1 antagonists” (AbbVie Inc., priority 2008, dated 2013)

Tests used:
[1] = target: T1, human TRPV1 receptor (hTRPV1) (Homo sapiens, UniProt Q8NER1); assay: Capsaicin activation assay (Ca2+ influx, FLIPR); format: cell-based; conditions: hTRPV1 in 1321N1 cells, 0.05 μM capsaicin
T1 construct: expressed in transfected cells
Method: Dulbecco's modified Eagle medium (D-MEM) (with 4.5 mg/mL glucose) and fetal bovine serum were obtained from Hyclone Laboratories, Inc. (Logan, Utah). Dulbecco's phosphate-buffered saline (D-PBS) (with 1 mg/mL glucose and 3.6 mg/l Na pyruvate, without phenol red), L-glutamine, hygromycin B, and Lipofectamine® were obtained from Life Technologies (Grand Island, N.Y.). G418 sulfate was obtained from Calbiochem-Novabiochem Corp. (San Diego, Calif.). Capsaicin (8-methyl-N-vanillyl-6-nonenamide) was obtained from Sigma-Aldrich, Co. (St. Louis, Mo.). Fluo-4 AM (N-[4-[6-[(acetyloxy)methoxy]-2,7-difluoro-3-oxo-3H-xanthen-9-yl]-2-[2-[2-[bis[2-[(acetyloxy)methoxy]-2-oxyethyl]amino]-5-methyl-phenoxy[ethoxy]phenyl]-N-[2-[(acetyloxy)methoxy]-2-oxyethyl]-glycine, (acetyloxy)methyl ester) was purchased from Molecular Probes (Eugene, Oreg.).
The cDNAs for the human TRPV1 receptor (hTRPV1) were isolated by reverse transcriptase-polymerase chain reaction (RT-PCR) from human small intestine poly A+ RNA supplied by Clontech (Palo Alto, Calif.) using primers designed surrounding the initiation and termination codons identical to the published sequences (Hayes et al. Pain 2000, 88, 205-215). The resulting cDNA PCR products were subcloned into pClneo mammalian expression vector (Promega) and fully sequenced using fluorescent dye-terminator reagents (Prism, Perkin-Elmer Applied Biosystems Division) and a Perkin-Elmer Applied Biosystems Model 373 DNA sequencer or Model 310 genetic analyzer. Expression plasmids encoding the hTRPV1 cDNA were transfected individually into 1321N1 human astrocytoma cells using Lipofectamine®. Forty-eight hours after transfection, the neomycin-resistant cells were selected with growth medium containing 800 μg/mL Geneticin (Gibco BRL). Surviving individual colonies were isolated and screened for TRPV1 receptor activity. Cells expressing recombinant homomeric TRPV1 receptors were maintained at 37° C. in D-MEM containing 4 mM L-glutamine, 300 μg/mL G418 (Cal-biochem) and 10% fetal bovine serum under a humidified 5% CO2 atmosphere.
The functional activity of compounds at the TRPV1 receptor was determined with a Ca^2+ influx assay and measurement of intracellular Ca^2+ levels ([Ca^2+]i). All compounds were tested over an 11-point half-log concentration range. Compound solutions were prepared in D-PBS (4× final concentration), and diluted serially across 96-well v-bottom tissue culture plates using a Biomek 2000 robotic automation workstation (Beckman-Coulter, Inc., Fullerton, Calif.). A 0.2 μM solution of the TRPV1 agonist capsaicin was also prepared in D-PBS. The fluorescent Ca^2+ chelating dye Fluo-4 AM was used as an indicator of the relative levels of [Ca^2+]i in a 96-well format using a Fluorescence Imaging Plate Reader (FLIPR)(Molecular Devices, Sunnyvale, Calif.). Cells were grown to confluency in 96-well black-walled tissue culture plates. Then, prior to the assay, the cells were loaded with 100 μL per well of Fluo-4 AM (2 μM, in D-PBS) for 1-2 hours at 23° C. Washing of the cells was performed to remove extracellular Fluo-4 AM (2×1 mL D-PBS per well), and afterward, the cells were placed in the reading chamber of the FLIPR instrument. 50 μL of the compound solutions were added to the cells at the 10 second time mark of the experimental run. Then, after a 3-minute time delay, 50 μL of the capsaicin solution was added at the, 190 second time mark (0.05 μM final concentration)(final volume=200 μL) to challenge the TRPV1 receptor. Time length of the experimental run was 240 seconds. Fluorescence readings were made at 1 to 5 second intervals over the course of the experimental run. The peak increase in relative fluorescence units (minus baseline) was calculated from the 190 second time mark to the end of the experimental run, and expressed as a percentage of the 0.05 μM capsaicin (control) response. […]

[2] = Rat telemetry protocol, core body temperature; format: in vivo; conditions: core body temperature of rats one hour post dosing, 100 μmol/kg p.o., relative to vehicle
Method: Male, Sprague Dawley rats, 225-250 grams were anesthetized with Sevoflurane (Abbott Laboratories). Rats were placed on a heating pad and covered with a sterile surgical drape. A ventral midline abdominal incision was made and sterile cotton tip applicators were used to gently move internal tissue and expose the abdominal aorta for implantation of the telemetry catheter (Data Sciences International; TL11M2-050-PXT). Blood flow was temporarily stopped to the lower extremities (5-7 min) with Diffenbach clamps to allow the insertion of the telemetry catheter into the abdominal aorta. Once inserted, a sterile cellulose patch was placed over the catheter/aorta and secured using a small amount of tissue adhesive (Vetbond, 3M). Once catheter placement was complete, the clamps were removed and blood flow was restored to the lower extremities. Thetransmitter was placed in the intraperitoneal cavity. The transmitter suture rib was sewn into the abdominal sutures to secure it in place. The skin was closed using sterile wound clips and the animal removed from Sevoflurane. Buprenex ([…] s.c.; Phoenix) was administered for post-operative analgesia. Animals were maintained on a heating pad until ambulatory, and then individually housed with food and water ad lib. Surgical staples were removed after 7-10 days post-implantation. Rats were allowed a 2-week post-surgical recovery period before treatment with test compound. Oral dosing (p.o.) was at time zero, with rats receiving a single dose of vehicle (10% EtOH, 20% Tween-80, 70% PEG-400) or a 100 μmol/kg dose of compound dissolved in vehicle. Temperature measurements were recorded every 15 minutes for the duration of the study (24 hours).
Representative compounds described herein have the novel property of having limited transient temperature effect on core body temperature of a mammal (e.g. rats). For example, compounds tested alter core body temperature of rats by less than about +0.5° C. at about 1 hour after administration of a single dose (100 μmol/kg) of the test compounds orally, for example, in the range from about −2.5° C. to less than about +0.5° C., from about −0.5° C. to less than about +0.5° C.; or from about −0.3° C. to about +0.3° C.
The term “core body temperature” as used herein, means the temperature measured in the intraperitoneal cavity.

[3] = target: T2, CYP2C9 (Homo sapiens, UniProt P11712); assay: CYP2C9 inhibition assay; format: in vitro ADME; conditions: pH 7.4, probe Luciferin-H (100 μM final), human liver microsomes, substrate Luciferin-H, read-out: CYP2C9 % inh @ 2.2 μM
T2 construct: human liver microsomes (BD Gentest); tissue BD Gentest; host or cells: human liver microsomes
Method: Stock solutions of test compounds were assayed in 96-well format for their ability to inhibit CYP2C9, CYP2D6, or CYP3A4 mediated metabolism of test substrates. Luciferin-H was used as the substrate for CYP2C9; 3-[2-(N,N-diethyl-N-methylammonium)ethyl]-7-methoxy-4-methylcoumarin (AMMC) was used as the substrate for CYP2D6; 7-benzyloxyquiniline (BZQ) was used as the substrate for CYP3A4. For each subtype, positive controls (sulphaphenazole in the case of CYP2C9; quinidine in the case of CYP2D6, ketoconazole in the case of CYP3A4) were used to validate assay results run in duplicate.
Pre-Incubation Mixture Preparation for CYP2C9 and CYP2D6: A pre-incubation mixture was prepared by combining 100 mM phosphate buffer (9.12 mL; pH 7.4), human liver microsomes (BD Gentest, 240 itt; final concentration: 0.4 mg/mL), and 10 mM nicotinamide adenine dinucleotide phosphate in 65.4 mM MgCl2 hexahydrate (120 μL; final concentration: 125 μM and 818 μM, respectively). To this was mixture is added a ‘regeneration’ mixture (120 μL) of 333 mM glucose-6-phosphate and 40 U/mL glucose-6-phosphate dehydrogenase in 5 mM sodium citrate (final concentration: 4 mM, 0.5 U/mL, and 0.06 mM, respectively).
Substrate Mixture Preparation for CYP2C9: To a solution of 25 mM phosphate buffer, (2.16 mL, pH 7.4) was added 5 mM Luciferin-H (Promega P450 Glo Assay V8792, 240 μL; final solution concentration 0.5 mM, final assay concentration 100 μM).
CYP2C9 Inhibiton Assay: To each well in the assay plate containing varying concentrations of test compound or control compound in DMSO (10 μL) Pre-Incubation Mixture (40 itt) was added to the wells and the assay plate was pre-incubated for 10 minutes at 37° C., with shaking or rocking. CYP2C9 Substrate Mixture (10 μL) was added to all wells and the assay plate was incubated for an additional 25 minutes at 37° C., with shaking or rocking. Final DMSO concentration was 1%. Luciferin-H detection reagent (Promega kit V8792, 50 μL) was added to all wells. The plate was then vortexed at ambient temperature for between 20 minutes and 2 hours, and the luminescence of each well was then read and recorded.

T1 sequence (Q8NER1 whole entry): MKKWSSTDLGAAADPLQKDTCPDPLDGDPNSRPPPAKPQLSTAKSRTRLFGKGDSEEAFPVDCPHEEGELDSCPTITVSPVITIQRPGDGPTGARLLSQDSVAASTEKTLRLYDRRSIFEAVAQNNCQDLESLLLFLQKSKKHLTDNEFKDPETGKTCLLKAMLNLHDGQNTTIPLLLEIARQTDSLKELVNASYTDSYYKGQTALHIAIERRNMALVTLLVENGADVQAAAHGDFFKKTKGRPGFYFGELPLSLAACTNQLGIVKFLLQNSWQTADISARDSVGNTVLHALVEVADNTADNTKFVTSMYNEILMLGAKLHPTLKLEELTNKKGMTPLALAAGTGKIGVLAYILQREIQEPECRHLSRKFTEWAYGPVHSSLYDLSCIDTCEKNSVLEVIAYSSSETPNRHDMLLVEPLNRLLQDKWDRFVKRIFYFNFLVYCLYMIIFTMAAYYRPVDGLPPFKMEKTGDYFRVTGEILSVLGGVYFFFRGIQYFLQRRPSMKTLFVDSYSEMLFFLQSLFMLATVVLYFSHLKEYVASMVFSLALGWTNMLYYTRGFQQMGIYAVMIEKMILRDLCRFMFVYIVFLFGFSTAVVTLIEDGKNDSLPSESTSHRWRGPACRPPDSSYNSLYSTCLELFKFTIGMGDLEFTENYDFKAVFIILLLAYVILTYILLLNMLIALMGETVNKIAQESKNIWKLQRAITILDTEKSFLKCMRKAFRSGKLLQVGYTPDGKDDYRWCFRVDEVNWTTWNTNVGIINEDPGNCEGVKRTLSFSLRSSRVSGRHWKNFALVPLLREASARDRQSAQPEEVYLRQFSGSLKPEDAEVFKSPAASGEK
T2 sequence (P11712 whole entry): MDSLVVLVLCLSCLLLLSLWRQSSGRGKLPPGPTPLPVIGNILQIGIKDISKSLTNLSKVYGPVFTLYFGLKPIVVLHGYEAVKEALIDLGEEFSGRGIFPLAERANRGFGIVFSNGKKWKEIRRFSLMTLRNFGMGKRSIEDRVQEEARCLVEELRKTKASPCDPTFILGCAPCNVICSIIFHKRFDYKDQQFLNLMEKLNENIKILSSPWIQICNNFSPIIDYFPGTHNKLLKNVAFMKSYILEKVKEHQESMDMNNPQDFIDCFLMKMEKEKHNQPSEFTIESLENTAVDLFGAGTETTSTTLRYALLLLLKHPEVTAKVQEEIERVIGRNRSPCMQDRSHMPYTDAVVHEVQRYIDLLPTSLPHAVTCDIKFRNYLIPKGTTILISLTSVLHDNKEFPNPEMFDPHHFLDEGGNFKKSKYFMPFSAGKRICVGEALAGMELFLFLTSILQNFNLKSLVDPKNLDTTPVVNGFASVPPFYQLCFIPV

Row | SMILES | IC50 [1] | inhibition at 25 min, 2.2 µM [3] | Δ Temp (° C.) [2]
1 | CC1(C)C[C@@H](NC(=O)Nc2cccc3cnc(N)cc23)c2ccc(F)cc2O1 [Example 106, N-(3-aminoisoquinolin-5-yl)-N′-[(4R)-7-fluoro-2,2-dimethyl-3,4-dihydro-2H-chromen-4-yl]urea] | 21 nM | 13% | 0.3 °C
2 | Cn1ncc2c(NC(=O)N[C@@H]3CC4(CCC4)Oc4ccc(F)cc43)cccc21 [Example 7, N-[(4R)-6-fluoro-3,3′,4,4′-tetrahydro-2′H-spiro[chromene-2,1′-cyclobutan]-4-yl]-N′-(1-methyl-1H-indazol-4-yl)urea] | 78 nM |  | 0.1 °C
3 | O=C(Nc1cccc2c1C[C@H](O)CC2)N[C@@H]1CC2(CCC2)Oc2ccc(F)cc21 [Example 6, N-[(4R)-6-fluoro-3,3′,4,4′-tetrahydro-2′H-spiro[chromene-2,1′-cyclobutan]-4-yl]-N′-[(7R)-7-hydroxy-5,6,7,8-tetrahydronaphthalen-1-yl]urea] | 28 nM |  | 0.2 °C
4 | O=C(Nc1cccc2[nH]ncc12)N[C@@H]1CC2(CCC2)Oc2ccc(F)cc21 [Example 8, N-[(4R)-6-fluoro-3,3′,4,4′-tetrahydro-2′H-spiro[chromene-2,1′-cyclobutan]-4-yl]-N′-1H-indazol-4-ylurea] | 76 nM |  | 0.1 °C
5 | CCC1(CC)C[C@@H](NC(=O)Nc2cccc3c2cnn3C)c2cccc(F)c2O1 [Example 50, N-[(4R)-2,2-diethyl-8-fluoro-3,4-dihydro-2H-chromen-4-yl]-N′-(1-methyl-1H-indazol-4-yl)urea] | 35 nM |  | 0.1 °C

Now those with a lower IC50 [1], led by results:

Row | IC50 [1] | inhibition at 25 min, 2.2 µM [3] | SMILES | Δ Temp (° C.) [2]
6 | 5 nM |  | O=C(Nc1cccc2[nH]ncc12)N[C@@H]1CCOc2c(OC(F)(F)F)cccc21 [Example 70, N-1H-indazol-4-yl-N′-[(4R)-8-(trifluoromethoxy)-3,4-dihydro-2H-chromen-4-yl]urea] | 0.3 °C
7 | 16 nM |  | CC1(C)C[C@@H](NC(=O)Nc2cccc3[nH]ncc23)c2ccc(C(F)(F)F)cc2O1 [Example 41, N-[(4R)-2,2-dimethyl-7-(trifluoromethyl)-3,4-dihydro-2H-chromen-4-yl]-N′-1H-indazol-4-ylurea] | −2.5 °C
8 | 9 nM |  | Cn1ncc2c(NC(=O)N[C@@H]3CC(CF)(CF)Oc4c(OC(F)(F)F)cccc43)cccc21 [Example 88, N-[(4R)-2,2-bis(fluoromethyl)-8-(trifluoromethoxy)-3,4-dihydro-2H-chromen-4-yl]-N′-(1-methyl-1H-indazol-4-yl)urea] | −0.3 °C
9 | 10 nM |  | CCC1(CC)C[C@@H](NC(=O)Nc2cccc3c(C)nccc23)c2cc(F)ccc2O1 [Example 86, N-[(4R)-2,2-diethyl-6-fluoro-3,4-dihydro-2H-chromen-4-yl]-N′-(1-methylisoquinolin-5-yl)urea] | −1.7 °C
10 | 19 nM |  | CCC1(CC)C[C@@H](NC(=O)Nc2cccc3[nH]ncc23)c2cc(F)ccc2O1 [Example 58, N-[(4R)-2,2-diethyl-6-fluoro-3,4-dihydro-2H-chromen-4-yl]-N′-1H-indazol-4-ylurea] | 0.3 °C
11 | 18 nM |  | CCCC1(CCC)C[C@@H](NC(=O)Nc2cccc3c2cnn3C)c2cccc(F)c2O1 [Example 67, N-[(4R)-8-fluoro-2,2-dipropyl-3,4-dihydro-2H-chromen-4-yl]-N′-(1-methyl-1H-indazol-4-yl)urea] | −0.2 °C
